Assay results published in ChEMBL document CHEMBL3232736, “Antiproliferative activities of halogenated thieno[3,2-d]pyrimidines” (Bioorg Med Chem, 2014).
In brackets after ≈: the same amount, converted by molar mass. Activity calls are given as the source filed them. The calls are words filed in the database; no cut-off is given here.

Assays:
L1210 [1] = experiment: Cytotoxicity against mouse L1210 cells assessed as reduction in cell number after 48 hrs by cell counting assay; assay type: functional, cell-based; settings: L1210, 48 h
[2] = target: Phosphatidylinositol 3-kinase catalytic subunit type 3 (Homo sapiens) (UniProt Q8NEB9); experiment: Inhibition of PIK3C3 (unknown origin) at 5 uM
Escherichia coli = experiment: Antibacterial activity against Escherichia coli ATCC 25922 assessed as growth inhibition at 100 uM after 16 to 20 hrs by microbroth dilution method; assay type: functional, organism-based
HeLa [3] = experiment: Cytotoxicity against human HeLa cells assessed as reduction in cell number after 72 hrs by cell counting assay; assay type: functional, cell-based
HEL = experiment: Cytotoxicity against human HEL cells assessed as reduction in cell number by cell counting assay; assay type: functional
L1210 [4] = experiment: Cytotoxicity against mouse L1210 cells assessed as reduction in cell viability after 48 hrs by MTT assay; assay type: functional, cell-based; settings: L1210, 48 h
[5] = target: Tyrosine-protein kinase JAK1 (Homo sapiens) (UniProt P23458); experiment: Inhibition of JAK1 (unknown origin) at 5 uM
[6] = test system: Tyrosine-protein kinase JAK2 (Homo sapiens), O60674 [V617F]; experiment: Inhibition of JAK2 JH1/JH2 domain V617F mutant (unknown origin) at 5 uM
[7] = target: Hepatocyte growth factor receptor (Homo sapiens) (UniProt P08581); experiment: Inhibition of MET (unknown origin) at 5 uM
[8] = target: Proto-oncogene tyrosine-protein kinase Src (Homo sapiens) (UniProt P12931); experiment: Inhibition of SRC (unknown origin) at 5 uM
Cryptococcus neoformans [9] = experiment: Antifungal activity against Cryptococcus neoformans B4546 assessed as growth inhibition after 48 hrs by microbroth dilution method; assay type: functional; settings: B4546, 48 h
[10] = target: Phosphatidylinositol 4-phosphate 3-kinase C2 domain-containing subunit beta (Homo sapiens) (UniProt O00750); experiment: Inhibition of PIK3C2B (unknown origin) at 5 uM
Candida albicans = experiment: Antifungal activity against Candida albicans ATCC 10231 assessed as growth inhibition after 16 to 20 hrs by microbroth dilution method; assay type: functional
[11] = target: Serine/threonine-protein kinase D2 (Homo sapiens) (UniProt Q9BZL6); experiment: Inhibition of PRKD2 (unknown origin) at 5 uM
Bacillus spizizenii = experiment: Antibacterial activity against Bacillus subtilis ATCC 6633 assessed as growth inhibition at 100 uM after 16 to 20 hrs by microbroth dilution method; assay type: functional
Cryptococcus neoformans [12] = experiment: Antifungal activity against Cryptococcus neoformans JEC20 assessed as growth inhibition after 48 hrs by microbroth dilution method; assay type: functional; settings: JEC20, 48 h
HeLa [13] = experiment: Cytotoxicity against human HeLa cells assessed as reduction in cell number; assay type: functional
L1210 [14] = experiment: Induction of apoptosis in mouse L1210 cells assessed as viable cells level at 1 uM after 48 hrs by Annexin-V/7-AAD staining-based flow cytometric analysis (reference value: 92.5%); assay type: functional
[15] = target: Proto-oncogene tyrosine-protein kinase Src (Homo sapiens) (UniProt P12931); experiment: Inhibition of SRC N1 (unknown origin) at 5 uM
[16] = target: Phosphatidylinositol 4,5-bisphosphate 3-kinase catalytic subunit gamma isoform (Homo sapiens) (UniProt P48736); experiment: Inhibition of PIK3CG (unknown origin) at 5 uM
[17] = target: Tyrosine-protein kinase JAK2 (Homo sapiens) (UniProt O60674); experiment: Inhibition of JAK2 JH1/JH2 domain (unknown origin) at 5 uM
[18] = target: Serine/threonine-protein kinase D3 (Homo sapiens) (UniProt O94806); experiment: Inhibition of PRKCN (unknown origin) at 5 uM
[19] = target: Phosphatidylinositol 4-phosphate 3-kinase C2 domain-containing subunit alpha (Homo sapiens) (UniProt O00443); experiment: Inhibition of PIK3C2A (unknown origin) at 5 uM
[20] = target: PI3-kinase p110-alpha/p85-alpha (Homo sapiens) (UniProt P27986+P42336); experiment: Inhibition of PIK3CA/PIK3R1 (unknown origin) at 5 uM; assay type: protein-complex assay
L1210 [21] = experiment: Induction of apoptosis in mouse L1210 cells assessed as late cells level at 1 uM after 48 hrs by Annexin-V/7-AAD staining-based flow cytometric analysis (reference value: 1.25%); assay type: functional
CCRF-CEM = experiment: Cytotoxicity against human CCRF-CEM cells assessed as reduction in cell number after 72 hrs by cell counting assay; assay type: functional, cell-based
[22] = target: Serine/threonine-protein kinase D1 (Homo sapiens) (UniProt Q15139); experiment: Inhibition of PRKD1 (unknown origin) at 5 uM
Enterococcus faecalis = experiment: Antibacterial activity against vancomycin-resistant Enterococcus faecalis ATCC 51299 assessed as growth inhibition at 100 uM after 16 to 20 hrs by microbroth dilution method; assay type: functional, organism-based
L1210 [23] = experiment: Induction of apoptosis in mouse L1210 cells assessed as early apoptotic cells level at 1 uM after 48 hrs by Annexin-V/7-AAD staining-based flow cytometric analysis (reference value: 2.59%); assay type: functional
[24] = target: Tyrosine-protein kinase JAK3 (Homo sapiens) (UniProt P52333); experiment: Inhibition of JAK3 (unknown origin) at 5 uM
[25] = target: Serine/threonine-protein kinase mTOR (Homo sapiens) (UniProt P42345); experiment: Inhibition of FRAP1 (unknown origin) at 5 uM
Staphylococcus aureus = experiment: Antibacterial activity against methicillin-resistant Staphylococcus aureus subsp. aureus ATCC 43300 assessed as growth inhibition at 100 uM after 16 to 20 hrs by microbroth dilution method; assay type: functional, organism-based
Pseudomonas aeruginosa = experiment: Antibacterial activity against Pseudomonas aeruginosa ATCC 27853 assessed as growth inhibition at 100 uM after 16 to 20 hrs by microbroth dilution method; assay type: functional, organism-based
[26] = target: Non-receptor tyrosine-protein kinase TYK2 (Homo sapiens) (UniProt P29597); experiment: Inhibition of TYK2 (unknown origin) at 5 uM
L1210 [27] = experiment: Cell cycle arrest in mouse L1210 cells at 0.32 uM after 24 to 48 hrs by propidium iodide staining-based flow cytometric analysis; assay type: functional
[28] = target: Leukocyte tyrosine kinase receptor (Homo sapiens) (UniProt P29376); experiment: Inhibition of LTK (unknown origin) at 5 uM
L1210 [29] = experiment: Induction of apoptosis in mouse L1210 cells assessed as necrotic cells level at 1 uM after 48 hrs by Annexin-V/7-AAD staining-based flow cytometric analysis (reference value: 3.68%); assay type: functional
Vero = experiment: Cytotoxicity against African green monkey Vero cells assessed as reduction in cell number; assay type: cell-based; settings: chlorocebus sabaeus
[30] = target: PI3-kinase p110-delta/p85-alpha (Homo sapiens) (UniProt P27986+O00329); experiment: Inhibition of PIK3CD/PIK3R1 (unknown origin) at 5 uM; assay type: protein-complex assay
[31] = target: Tyrosine-protein kinase JAK2 (Homo sapiens) (UniProt O60674); experiment: Inhibition of JAK2 (unknown origin) at 5 uM
L1210 [32] = experiment: Induction of apoptosis in mouse L1210 cells assessed as early apoptosis at 5.4 uM after 48 hrs by Annexin-V/7-AAD staining-based flow cytometric analysis (rvb = 3.36%); assay type: functional
L1210 [33] = experiment: Cell cycle arrest in mouse L1210 cells at 5.4 uM after 24 to 48 hrs by propidium iodide staining-based flow cytometric analysis; assay type: functional
L1210 [34] = experiment: Induction of apoptosis in mouse L1210 cells assessed as necrotic cell level at 5.4 uM after 48 hrs by Annexin-V/7-AAD staining-based flow cytometric analysis (reference value: 8.13%); assay type: functional
L1210 [35] = experiment: Induction of apoptosis in mouse L1210 cells assessed as late apoptosis at 5.4 uM after 48 hrs by Annexin-V/7-AAD staining-based flow cytometric analysis (reference value: 4.46%); assay type: functional
L1210 [36] = experiment: Induction of apoptosis in mouse L1210 cells assessed as viable cell level at 5.4 uM after 48 hrs by Annexin-V/7-AAD staining-based flow cytometric analysis (reference value: 83%); assay type: functional

Chain of Proto-oncogene tyrosine-protein kinase Src (Homo sapiens) (P12931 2-536 limits assumed): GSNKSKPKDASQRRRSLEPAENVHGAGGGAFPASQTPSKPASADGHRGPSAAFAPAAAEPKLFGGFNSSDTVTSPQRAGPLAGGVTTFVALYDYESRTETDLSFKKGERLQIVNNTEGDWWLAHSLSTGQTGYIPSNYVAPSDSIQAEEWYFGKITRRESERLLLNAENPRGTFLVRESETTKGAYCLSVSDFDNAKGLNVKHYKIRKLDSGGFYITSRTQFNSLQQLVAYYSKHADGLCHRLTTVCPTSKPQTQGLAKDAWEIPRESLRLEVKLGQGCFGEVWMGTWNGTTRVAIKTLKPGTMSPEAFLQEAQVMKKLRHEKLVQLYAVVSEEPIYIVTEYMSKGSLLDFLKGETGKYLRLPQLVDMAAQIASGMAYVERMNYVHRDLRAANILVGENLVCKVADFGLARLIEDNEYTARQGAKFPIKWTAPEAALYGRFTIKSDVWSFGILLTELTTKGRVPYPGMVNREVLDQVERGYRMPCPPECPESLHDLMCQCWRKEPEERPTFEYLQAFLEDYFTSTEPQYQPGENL
Chain of Tyrosine-protein kinase JAK2 (Homo sapiens) (O60674 whole entry, the tested form may be a part): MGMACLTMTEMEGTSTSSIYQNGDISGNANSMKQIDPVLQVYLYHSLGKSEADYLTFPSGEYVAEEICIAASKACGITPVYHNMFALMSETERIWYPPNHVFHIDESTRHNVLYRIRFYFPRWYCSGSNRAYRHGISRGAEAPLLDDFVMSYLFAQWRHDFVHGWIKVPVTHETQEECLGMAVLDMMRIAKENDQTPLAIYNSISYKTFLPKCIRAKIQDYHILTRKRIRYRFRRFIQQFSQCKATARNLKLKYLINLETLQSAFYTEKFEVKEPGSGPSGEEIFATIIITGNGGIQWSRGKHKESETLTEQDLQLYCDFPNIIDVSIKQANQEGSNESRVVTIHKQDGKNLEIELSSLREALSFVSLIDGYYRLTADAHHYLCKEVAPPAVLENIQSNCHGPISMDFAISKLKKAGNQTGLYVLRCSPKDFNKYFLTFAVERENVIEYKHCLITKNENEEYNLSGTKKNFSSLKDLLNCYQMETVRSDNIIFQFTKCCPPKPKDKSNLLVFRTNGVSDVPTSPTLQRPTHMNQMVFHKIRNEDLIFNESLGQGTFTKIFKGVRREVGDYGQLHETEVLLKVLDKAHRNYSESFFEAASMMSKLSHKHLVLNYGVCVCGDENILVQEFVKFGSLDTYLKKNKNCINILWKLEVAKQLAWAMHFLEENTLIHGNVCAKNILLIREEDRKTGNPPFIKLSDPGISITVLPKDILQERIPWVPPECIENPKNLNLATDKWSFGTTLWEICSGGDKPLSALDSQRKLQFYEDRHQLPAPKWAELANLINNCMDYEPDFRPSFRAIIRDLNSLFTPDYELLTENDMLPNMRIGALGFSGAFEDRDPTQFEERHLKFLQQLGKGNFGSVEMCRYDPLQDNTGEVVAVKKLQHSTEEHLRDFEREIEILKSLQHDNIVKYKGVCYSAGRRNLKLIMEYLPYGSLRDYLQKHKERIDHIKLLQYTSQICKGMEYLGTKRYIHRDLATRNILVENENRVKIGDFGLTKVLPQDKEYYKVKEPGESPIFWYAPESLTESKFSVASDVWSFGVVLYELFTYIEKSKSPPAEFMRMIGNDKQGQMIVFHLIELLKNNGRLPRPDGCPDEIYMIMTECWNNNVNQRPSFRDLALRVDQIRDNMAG
Chain of Tyrosine-protein kinase JAK1 (Homo sapiens) (P23458 whole entry, the tested form may be a part): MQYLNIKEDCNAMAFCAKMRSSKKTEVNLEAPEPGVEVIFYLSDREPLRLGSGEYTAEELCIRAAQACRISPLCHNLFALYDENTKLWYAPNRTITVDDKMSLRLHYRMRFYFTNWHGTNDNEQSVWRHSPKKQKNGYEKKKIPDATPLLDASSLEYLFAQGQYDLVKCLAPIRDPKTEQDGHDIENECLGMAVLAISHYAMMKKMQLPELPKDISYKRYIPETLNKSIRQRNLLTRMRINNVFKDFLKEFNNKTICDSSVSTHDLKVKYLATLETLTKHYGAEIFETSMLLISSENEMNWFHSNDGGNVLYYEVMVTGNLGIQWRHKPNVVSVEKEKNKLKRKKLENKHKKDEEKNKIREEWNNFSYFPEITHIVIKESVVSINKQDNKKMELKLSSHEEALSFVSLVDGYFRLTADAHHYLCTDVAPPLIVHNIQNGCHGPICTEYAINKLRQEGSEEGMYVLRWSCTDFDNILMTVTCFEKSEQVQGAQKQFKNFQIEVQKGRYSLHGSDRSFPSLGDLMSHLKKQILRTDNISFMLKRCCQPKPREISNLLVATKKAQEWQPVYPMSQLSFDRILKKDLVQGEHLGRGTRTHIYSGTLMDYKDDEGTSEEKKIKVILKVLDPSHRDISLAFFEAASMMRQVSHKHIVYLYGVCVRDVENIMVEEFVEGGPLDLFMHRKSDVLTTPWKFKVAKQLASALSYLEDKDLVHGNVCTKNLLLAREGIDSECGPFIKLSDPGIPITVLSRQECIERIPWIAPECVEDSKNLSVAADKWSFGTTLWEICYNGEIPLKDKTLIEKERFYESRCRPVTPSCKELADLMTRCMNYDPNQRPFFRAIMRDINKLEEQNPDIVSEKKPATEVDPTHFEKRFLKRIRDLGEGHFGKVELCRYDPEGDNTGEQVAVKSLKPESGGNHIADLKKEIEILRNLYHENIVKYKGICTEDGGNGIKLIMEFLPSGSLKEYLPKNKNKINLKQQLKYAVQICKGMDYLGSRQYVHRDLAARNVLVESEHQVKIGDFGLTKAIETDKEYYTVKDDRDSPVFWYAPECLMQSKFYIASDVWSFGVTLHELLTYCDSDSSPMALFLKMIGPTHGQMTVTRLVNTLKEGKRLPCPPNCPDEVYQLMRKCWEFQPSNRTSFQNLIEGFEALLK
Chain of Hepatocyte growth factor receptor (Homo sapiens) (P08581 whole entry): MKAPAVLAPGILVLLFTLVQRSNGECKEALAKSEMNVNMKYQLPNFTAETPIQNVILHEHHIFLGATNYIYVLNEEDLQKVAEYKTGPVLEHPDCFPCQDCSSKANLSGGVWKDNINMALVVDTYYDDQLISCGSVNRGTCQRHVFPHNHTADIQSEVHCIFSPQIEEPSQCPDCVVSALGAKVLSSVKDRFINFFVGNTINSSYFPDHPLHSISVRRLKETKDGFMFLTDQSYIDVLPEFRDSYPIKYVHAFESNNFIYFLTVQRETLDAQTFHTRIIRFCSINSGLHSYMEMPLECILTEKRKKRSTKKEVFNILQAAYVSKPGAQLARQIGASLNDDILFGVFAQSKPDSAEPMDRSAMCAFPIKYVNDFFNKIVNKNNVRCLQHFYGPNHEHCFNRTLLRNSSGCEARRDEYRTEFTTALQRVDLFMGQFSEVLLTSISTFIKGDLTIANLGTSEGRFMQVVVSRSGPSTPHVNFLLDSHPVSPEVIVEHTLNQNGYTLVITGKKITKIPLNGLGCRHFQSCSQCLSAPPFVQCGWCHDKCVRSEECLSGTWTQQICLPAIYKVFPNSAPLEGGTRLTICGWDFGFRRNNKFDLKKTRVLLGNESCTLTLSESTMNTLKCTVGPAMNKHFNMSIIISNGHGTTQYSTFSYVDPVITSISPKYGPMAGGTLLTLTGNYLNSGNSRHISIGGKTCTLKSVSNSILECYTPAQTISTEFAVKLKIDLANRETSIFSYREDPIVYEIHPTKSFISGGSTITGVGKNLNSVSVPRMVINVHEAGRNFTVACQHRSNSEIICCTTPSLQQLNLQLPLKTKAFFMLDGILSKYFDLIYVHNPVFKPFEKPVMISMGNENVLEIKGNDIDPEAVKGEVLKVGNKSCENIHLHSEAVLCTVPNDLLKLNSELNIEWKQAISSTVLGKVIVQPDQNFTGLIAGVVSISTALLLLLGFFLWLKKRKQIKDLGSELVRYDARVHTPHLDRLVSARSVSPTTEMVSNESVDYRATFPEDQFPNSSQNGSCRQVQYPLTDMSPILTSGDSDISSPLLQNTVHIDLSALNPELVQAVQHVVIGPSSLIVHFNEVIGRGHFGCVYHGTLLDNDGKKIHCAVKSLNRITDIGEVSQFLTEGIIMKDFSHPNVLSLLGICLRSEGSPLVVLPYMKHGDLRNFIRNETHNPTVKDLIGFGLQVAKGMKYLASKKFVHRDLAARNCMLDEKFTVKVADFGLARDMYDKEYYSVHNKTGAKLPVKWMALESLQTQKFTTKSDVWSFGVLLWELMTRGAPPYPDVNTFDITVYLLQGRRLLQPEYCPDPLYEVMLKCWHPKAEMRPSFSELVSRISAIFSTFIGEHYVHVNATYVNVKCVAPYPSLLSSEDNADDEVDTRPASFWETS
Chain of Leukocyte tyrosine kinase receptor (Homo sapiens) (P29376 whole entry): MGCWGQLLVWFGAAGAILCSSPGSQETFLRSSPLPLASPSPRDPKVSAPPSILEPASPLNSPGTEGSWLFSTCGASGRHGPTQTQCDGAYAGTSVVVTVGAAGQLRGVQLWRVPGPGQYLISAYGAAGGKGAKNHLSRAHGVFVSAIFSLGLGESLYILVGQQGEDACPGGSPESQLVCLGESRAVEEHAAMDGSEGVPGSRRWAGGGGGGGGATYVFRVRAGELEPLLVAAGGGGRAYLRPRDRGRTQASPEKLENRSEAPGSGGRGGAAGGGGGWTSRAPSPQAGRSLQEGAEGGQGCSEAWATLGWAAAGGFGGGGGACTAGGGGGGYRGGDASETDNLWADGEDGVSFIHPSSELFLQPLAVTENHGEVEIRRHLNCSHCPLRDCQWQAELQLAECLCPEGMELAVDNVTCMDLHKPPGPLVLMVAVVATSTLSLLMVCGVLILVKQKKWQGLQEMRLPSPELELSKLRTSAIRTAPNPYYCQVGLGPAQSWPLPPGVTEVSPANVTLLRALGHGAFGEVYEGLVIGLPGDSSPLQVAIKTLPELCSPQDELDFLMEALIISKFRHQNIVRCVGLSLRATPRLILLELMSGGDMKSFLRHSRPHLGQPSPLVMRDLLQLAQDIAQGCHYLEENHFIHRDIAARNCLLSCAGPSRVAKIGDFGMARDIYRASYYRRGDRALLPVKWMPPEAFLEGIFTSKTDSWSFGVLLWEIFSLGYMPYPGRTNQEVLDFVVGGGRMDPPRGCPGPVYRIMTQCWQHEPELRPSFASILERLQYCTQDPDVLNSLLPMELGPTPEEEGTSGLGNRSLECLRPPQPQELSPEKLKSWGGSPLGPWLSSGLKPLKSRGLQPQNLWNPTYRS
Chain of Tyrosine-protein kinase JAK2 (Homo sapiens), O60674 [V617F] (O60674 whole entry V617F, the tested form may be a part): as the sequence (O60674 whole entry, the tested form may be a part) above, with V617F counted along it

Clc1nc(Cl)c2sccc2n1
IC50 (L1210 [1]): 0.67 µM | inhibition [2]: < 40% | inhibition (Escherichia coli): inactive | IC50 (HeLa [3]): 3.9 µM | MIC99 (HEL): 100 µM (≈ 20.5 µg/mL) | IC50 (L1210 [4]): 0.32 µM | inhibition [5]: < 40% | inhibition [6]: < 40% | inhibition [7]: < 40% | inhibition [8]: < 40% | MIC95 (Cryptococcus neoformans [9]): 34.6 µM (≈ 7.1 µg/mL) | inhibition [10]: < 40% | MIC95 (Candida albicans): 23.4 µM (≈ 4.8 µg/mL) | inhibition [11]: < 40% | inhibition at 100 µM (Bacillus spizizenii): 43% | MIC95 (Cryptococcus neoformans [12]): 16.6 µM (≈ 3.4 µg/mL) | MIC99 (HeLa [13]): 4 µM (≈ 0.82 µg/mL) | Activity (L1210 [14]): 37.9% | inhibition [15]: < 40% | inhibition [16]: < 40% | inhibition [17]: < 40% | inhibition [18]: < 40% | inhibition [19]: < 40% | inhibition [20]: < 40% | Activity (L1210 [21]): 4.72% | IC50 (CCRF-CEM): 5.2 µM | inhibition [22]: < 40% | inhibition (Enterococcus faecalis): inactive | Activity (L1210 [23]): 56% | inhibition [24]: < 40% | inhibition [25]: < 40% | inhibition (Staphylococcus aureus): inactive | inhibition (Pseudomonas aeruginosa): inactive | inhibition [26]: < 40% | Activity (L1210 [27]): inactive | inhibition [28]: < 40% | Activity (L1210 [29]): 1.29% | MIC99 (Vero): 20 µM (≈ 4.1 µg/mL) | inhibition [30]: < 40% | inhibition [31]: < 40%

Clc1nc(Cl)c2scc(Br)c2n1
IC50 (L1210 [1]): 5.4 µM | inhibition (Escherichia coli): inactive | Activity (L1210 [32]): 33.3% | Activity (L1210 [33]): inactive | IC50 (HeLa [3]): 4.3 µM | MIC99 (HEL): 20 µM (≈ 5.68 µg/mL) | IC50 (L1210 [4]): 5.4 µM | MIC95 (Cryptococcus neoformans [9]): 7 µM (≈ 1.99 µg/mL) | MIC95 (Candida albicans): 10.7 µM (≈ 3.04 µg/mL) | inhibition (Bacillus spizizenii): inactive | MIC95 (Cryptococcus neoformans [12]): 5.8 µM (≈ 1.65 µg/mL) | MIC99 (HeLa [13]): 20 µM (≈ 5.68 µg/mL) | IC50 (CCRF-CEM): 14 µM | inhibition (Enterococcus faecalis): inactive | Activity (L1210 [34]): 1.84% | inhibition (Staphylococcus aureus): inactive | inhibition (Pseudomonas aeruginosa): inactive | Activity (L1210 [35]): 21.8% | Activity (L1210 [36]): 43.1% | MIC99 (Vero): 20 µM (≈ 5.68 µg/mL)
